Laboratory results from US10273241B2 (President and Fellows of Harvard College, priority 2013, dated 2019).
Like-named read-outs stand apart in the source and are kept apart here.

How the values were obtained:
[1] = tested on: Human Umbilical Vein Endothelial Cells (HUVECs); experiment: HUVEC growth inhibition (CellTiter-Blue, 96 h); format: cell-based; details: 96 hour treatment
Method: HUVECs were plated in triplicate in 96-well plates at a density of 1,000 cells/well in 75 μL. After 24 h, compounds were serially diluted in medium and delivered to cells as 4× solutions in 25 μL (0.1% DMSO final for assay). 96 h after compound addition, CellTiter-Blue (Promega) was added to the wells, plates were incubated at 37° C. for 90 min, and fluorescence (555 nm excitation; 580 nm emission) was detected using a SPECTRAmax M3. IC50 was determined by fitting the data to a four-parameter dose-response curve using GraphPad Prism 5.0.

K562 = experiment: Cell growth assay, K562 cell line; format: cell-based, human; details: Homo sapiens, K562, 240 h; day 10; lack of activity is taken as evidence of on-target selectivity
Method: (§1) For all other cell lines, compounds were serially diluted in medium and dispensed in triplicate in 96-well plates (0.1% DMSO final for assay) followed by the addition of exponentially growing cells at densities ranging from 5,000 to 30,000 cells/well. Cells were also seeded into 2 additional control wells containing vehicle (0.1% DMSO). After 3 days, the number of viable cells in one of the control wells was counted by hemocytometer or MOXI Z (Orflo) and an equal volume of cells for all wells were split-back with fresh vehicle/compounds such that the resulting seeding density for the control well was 5,000-30,000 cells/well, matching the initial seeding density in that well. This procedure was repeated on day 7 and day 10. % growth was calculated as % growth=100×(total estimated cell number in well−day 0 starting cell number)/(total average vehicle estimated cell number−day 0 starting cell number). To determine the estimated cell number in each well, cells that were counted in the control well were diluted 3-fold for an 8-point dilution series, and transferred to 384-well plates in duplicate, 20 μL per well. Cells in all other wells were diluted 4-fold and transferred to 384-well plates in duplicate, 20 μL per well. 20 μL of CellTiter-Glo (Promega) was subsequently added to all wells and luminescence was detected using a SPECTRAmax M3. The control well dilution series was fit to a linear regression and used as a standard for calculating the estimated cell number for each well. For days 7 and 10, total estimated cell number represents the split-adjusted theoretical cell number.

MOLM-14 = experiment: Cell growth assay, MOLM-14 AML cell line; format: cell-based, human; details: Homo sapiens
Method: as §1, with “After 3 days, the number of viable cells in one of the control wells was counted by hemocytometer or MOXI Z (Orflo) and an equal volume of cells for all wells were split-back with fresh vehicle/compounds such that the resulting seeding density for the control well was 5,000-30,000 cells/well, matching the initial seeding density in that well. This procedure was repeated on day 7 and day 10. % growth was calculated as % growth=100×(total estimated cell number in well−day 0 starting cell number)/(total average vehicle estimated cell number−day 0 starting cell number).” left out

MV4;11 = experiment: Cell growth assay, MV4;11 AML cell line; format: cell-based, human; details: Homo sapiens
Method: as §1, with “After 3 days, the number of viable cells in one of the control wells was counted by hemocytometer or MOXI Z (Orflo) and an equal volume of cells for all wells were split-back with fresh vehicle/compounds such that the resulting seeding density for the control well was 5,000-30,000 cells/well, matching the initial seeding density in that well. This procedure was repeated on day 7 and day 10. % growth was calculated as % growth=100×(total estimated cell number in well−day 0 starting cell number)/(total average vehicle estimated cell number−day 0 starting cell number).” left out

SET-2 = experiment: Cell growth assay, SET-2 cell line; format: cell-based; details: Homo sapiens, SET-2, 240 h; read-out: SET-2 GI50 day 10
Method: as §1

[2] = Pharmacokinetic study of 14A in male CD-1 mice; format: in vivo; details: CD-1, mouse, blood
Method: For pharmacokinetic studies with (14A), (14A) was formulated in 20% hydroxypropyl-beta-cyclodextrin (HPCD) and male CD-1 mice were given a single dose of 14A at 3 mg/kg i.p. and intravenous (i.v.) and 10 mg/kg oral (p.o.). Prior to dosing, mice were fasted overnight until 4 hours post-dosing. Blood samples were collected at the indicated timepoints and analyzed by HPLC/MS/MS to evaluate the concentration of (14A).

[3] = tested on: Human Umbilical Vein Endothelial Cells (HUVECs); details: less potent than cortistatin A; Aoki et al. 2007; cited from earlier work
[4] = MOLM-14, 240 h, day 10, cells passaged, fresh compound added on days 3 and 7, read-out: MOL M14 G150 day 10
[5] = MOLM-14, day 7, fresh compound added on day 3, read-out: MOL M14 GI50 day 7
[6] = MV4-11, 240 h, day 10, cells passaged, fresh compound added on days 3 and 7, read-out: MV 4;11 GI50 day 10
[7] = MV4-11, day 7, fresh compound added on day 3, read-out: MV4;11 GI50 day 7

Row | Compound | GI50 (K562) [µM] | GI50 (MOLM-14; [4]) [µM] | GI50 (MV4;11; [6]) [µM] | also measured
1 | C[C@]12CC=C3C=C4[C@@H](O)[C@H](O)[C@@H]([N+](C)(C)[O-])CC45CC[C@]3(O5)[C@@H]1CC[C@@H]2c1ccc2ccncc2c1 [cortistatin A N-oxide, Cortistatin A N-oxide] |  |  |  | inhibition of HUVEC proliferation compared with cortistatin A [1]: equipotent
2 | CN1CCN([C@H]2CCC3=CC4=CC[C@]5(C)[C@@H](c6ccc7ccncc7c6)CC[C@H]5C45CC[C@]3(C2)O5)CC1 [16B, β-N-methylpiperazine] | > 1 | 0.009 | 0.008 | GI50 (MOLM-14; [5]): 0.017 µM; GI50 (MV4;11; [7]): 0.015 µM
3 | C[C@]12CC=C3C=C4CC[C@@H](NS(C)(=O)=O)C[C@]45CCC3(O5)[C@@H]1CC[C@@H]2c1ccc2ccncc2c1 [73A, α-methylsulfonamide] | > 1 | 0.2 | 0.09 | 
4 | C[C@]12CC=C3C=C4CC[C@@H](N5CCOCC5)C[C@]45CCC3(O5)[C@@H]1CC[C@@H]2c1ccc2ccncc2c1 [15A, α-morpholine] |  | 0.02 | 0.0025 | GI50 (SET-2): 0.008 µM
5 | CC1(C)NC(=O)N([C@@H]2CCC3=CC4=CC[C@]5(C)[C@@H](c6ccc7ccncc7c6)CC[C@H]5C45CC[C@]3(C2)O5)C1=O [74A, α-dimethylhydantoin] | > 1 | 0.8 | 0.4 | 
6 | C[C@]12CC=C3C=C4CC[C@H](NS(C)(=O)=O)C[C@]45CCC3(O5)[C@@H]1CC[C@@H]2c1ccc2ccncc2c1 [73B, β-methylsulfonamide] | > 1 | 0.2 | 0.15 | 
7 | C[C@]12CC=C3C=C4CC[C@@H](N)CC45CC[C@]3(O5)[C@@H]1CC[C@@H]2c1ccc2ccncc2c1 [62A, α-primaryamine] |  | 0.005 | 0.0004 | GI50 (SET-2): 0.00045 µM
8 | CN(C)[C@H]1CCC2=CC3=CC[C@]4(C)C(c5ccc6ccncc6c5)=CC[C@H]4[C@@]34CC[C@]2(C1)O4 [23B, β-dimethylamine 17,18-unsaturated isoquinoline] | > 1 | 0.055 | 0.035 | 
9 | CN(C)[C@@H]1CCC2=CC3=CC[C@]4(C)[C@@H](c5ccc6ccncc6c5)CC[C@H]4C34CC[C@]2(C1)O4 [14A, α-dimethylamine] |  |  |  | clearance ([2]; 3 mg/kg IV): 29 mL/min/kg; Cmax ([2]; 10 mg/kg PO in 20% HPCD, after 2 hours, read-out: Cmax after oral dosing): 255 ng/mL; half-life ([2]; 10 mg/kg PO in 20% HPCD, read-out: T1/2 after oral dosing (converted)): ~5 h; concentration at 24 h ([2]; 10 mg/kg PO, 24 h, read-out: oral C24 trough concentration): 14.2 ng/mL; bioavailability ([2]; ip, 3 mg/kg, 3 mg/kg IP, read-out: IP bioavailability): 95%; Vd ([2]; iv, 3 mg/kg, 3 mg/kg IV, read-out: Vss): 11.7 L/kg; bioavailability ([2]; oral, 10 mg/kg, 10 mg/kg PO vs 3 mg/kg IV, read-out: oral bioavailability): 44%
10 | CN[C@@H]1CCC2=CC3=CC[C@]4(C)C(c5ccc6ccncc6c5)CC[C@H]4C34CC[C@]2(C1)O4 (stereo partly drawn) [24A, α-monomethylamine] |  | 0.018 | 0.001 | GI50 (SET-2): 0.0005 µM
11 | C[C@]12CC=C3C=C4CC[C@H](N5CCOCC5)C[C@]45CCC3(O5)[C@@H]1CC[C@@H]2c1ccc2ccncc2c1 [15B, β-morpholine] | > 1 | 0.0125 | 0.012 | 
12 | C[C@]12CC=C3C=C4CC[C@@H](N5CCCC5)C[C@]45CC[C@]3(O5)[C@@H]1CC[C@@H]2c1ccc2ccncc2c1 [19A, α-pyrrolidine] |  | 0.005 | 0.0015 | GI50 (SET-2): 0.0004 µM
13 | cortistatin J |  |  |  | potency at inhibiting HUVEC proliferation relative to cortistatin A [3]: 8 fold
14 | C[C@]12CC=C3C=C4CC[C@H](N5CCC5)C[C@]45CCC3(O5)[C@@H]1CC[C@@H]2c1ccc2ccncc2c1 [18B, β-azetidine] | > 1 | 0.013 | 0.013 | GI50 (MOLM-14; [5]): 0.025 µM; GI50 (MV4;11; [7]): 0.02 µM
